# Laboratory results: US20020091086A1, “Peptides that block viral infectivity and methods of use thereof” (priority 1999, published 2002)
# Read-outs that look alike come from different tables or passages of the source. Peptide text beside a SMILES is read from it.
# What was measured:
# [1] = test system: HIV-1; details: for reduction of HIV-1 infectivity, p24 antigen in cell supernatants: Table 6; for p24 / p24 (OD) / reduction (%): Experiment 5, H9 cells
# Experimental: In Experiment 5, (Table 6) approximately 200,000 H9 cells were infected with HIV-1 at 25 TCID50 to test the inhibitory effect of different concentrations of peptides GPG-NH2, GKG-NH2 and CQG-NH2 and combinations of these peptides. As above, H9 cells were resuspended with or without the different peptides at varying concentrations in 1 ml of RPMI 1640 medium supplemented with 10% (v/v) heat-inactivated fetal bovine serum (FBS), penicillin (100 u/ml), streptomycin (100 u/ml), and Polybrene (2 μg/ml). Thereafter, viruses were added at 25 TCID50 in a volume of 20-30 μl. Cells were incubated with the indicated virus at 37° C. for 1 hr then pelleted at 170×g for 7 minutes. The cells were then washed three times in RPMI medium without peptides at room temperature and pelleted at 170×g for 7 minutes, as above. After the final wash, the cells were resuspended in RPMI culture medium containing the peptides in a 24-well plate (Costar corporation) and kept at 37° C. in 5% CO2 with humidity.
# Culture supernatants were collected when the medium was changed at 4, 7, and 14 days post infection. The replication of each virus was monitored by detecting the presence of p24 in the supernatants. HIV p24 antigen was determined using a commercially available HIV p24 antigen detection kit (Abbott). The results are presented as absorbance values (OD) and higher absorbance indicates a higher protein concentration and greater viral infection. In some cases, serial dilutions of the supernatants were made so as to more accurately detect p24 concentration.
# The percent reduction tabulated in Table 6 was calculated by dividing amount of p24 antigen detected in the peptide-treated sample by the amount of p24 antigen detected in the control sample, multiplying this dividend by 100 to obtain a percentage, and subtracting the dividend percentage by 100%.
# [2] = test system: HIV-1; details: 100 μM, H9 cells
# Description: In this example, the methods that were used to analyze the ability of various tripeptides to inhibit HIV-1, HIV-2, and SIV replication are disclosed. In Experiments 1 and 2, approximately 200,000 H9 cells were infected with HIV-1, HIV-2 or SIV at 25 TCID50 to test the inhibitory effect of the following synthesized tripeptides LKA-NH2, ILK-NH2, GPQ-NH2, GHK-NH2, GKG-NH2, ACQ-NH2, CQG-NH2, ARV-NH2, KAR-NH2, HKA-NH2, GAT-NH2, KAL-NH2, and GPG-NH2. Accordingly, the H9 cells were resuspended with or without the different peptides (approximately 100 μM) in 1 ml of RPMI 1640 medium supplemented with 10% (v/v) heat-inactivated fetal bovine serum (FBS), penicillin (100 u/ml), and streptomycin (100 u/ml), all available through GIBCO, and Polybrene (2 μg/ml), available through Sigma. Thereafter, viruses were added at 25 TCID50 in a volume of 20-30μl. Cells were incubated with virus at 37° C. for 1 hr then pelleted at 170×g for 7 minutes. The cells were then washed three times in RPMI medium without peptides at room temperature and pelleted at 170×g for 7 minutes, as above. After the final wash, the cells were resuspended in RPMI culture medium containing the peptides in a 24-well plate (Costar corporation) and were kept at 37° C. in 5% CO2 with humidity.
# Culture supernatants were collected and analyzed when the medium was changed at 4, 7, 10, and 14 days post infection. To monitor the replication of virus, reverse transcriptase (RT) activity in the supernatants was assayed using a commercially available Lenti-RT activity kit. (Cavidi Tech, Uppsala, Sweden). The amount of RT was determined with the aid of a regression line of standards. The results are presented as absorbance values (OD) and higher absorbance indicates a higher protein concentration and greater viral infection. Syncytium formation was also monitored by microscopic examination.
# [3] = test system: HIV-2; test: HIV-2 infectivity assay in H9 cells, RT activity in supernatant; format: cell-based; details: for HIV-2 infection, result in words: summary of Experiments 1-3
# [4] = Experiment 3, 5 μM (of each tripeptide)
# [5] = Experiment 3, 20 μM (of each tripeptide)
Compound,"p24 ([1]; Day 7 HIV-1, 100 μM)","p24 (OD) ([1]; Day 7 HIV-1, 100 μM)","reduction (%) ([1]; Day 7 HIV-1, 100 μM)","p24 ([1]; Day 7 HIV-1, 300 μM)","p24 (OD) ([1]; Day 7 HIV-1, 300 μM)","reduction (%) ([1]; Day 7 HIV-1, 300 μM)","p24 ([1]; Day 14 HIV-1, 100 μM)","p24 (OD) ([1]; Day 14 HIV-1, 100 μM)","reduction (%) ([1]; Day 14 HIV-1, 100 μM)","p24 ([1]; Day 14 HIV-1, 300 μM)","p24 (OD) ([1]; Day 14 HIV-1, 300 μM)","reduction (%) ([1]; Day 14 HIV-1, 300 μM)",HIV-1 Syncytia ([2]; Experiment 1),HIV-1 Syncytia ([2]; Experiment 2),"Day 7 RT HIV-2 ([3]; Experiment 1, 100 μM)","Day 10 RT HIV-2 ([3]; Experiment 1, 100 μM)","Day 7 RT HIV-2 ([3]; Experiment 2, 100 μM)","Day 10 RT HIV-2 ([3]; Experiment 2, 100 μM)","Day 7 RT HIV-2 [3, 4]","Day 10 RT HIV-2 [3, 4]",other results
"NCCCC[C@H](NC(=O)CN)C(=O)NCC(N)=O [GKG-NH2, glycyl-lysyl-glycine amide] (H-Gly-Lys-Gly-NH2)",1830 pg/mL,0.566 × 10^1 OD,95%,388 pg/mL,1.08 OD,99%,551000 pg/mL,1.48 × 10^3 OD,61%,870 pg/mL,0.33 × 10^1 OD,100%,neg,neg,0.160 OD,0.147 OD,0.283 OD,1.637 OD,1.769 OD,2.510 OD,"reduction of HIV-1 infectivity, p24 antigen in cell supernatants ([1]; 300 μM): ~100%; p24 ([1]; Day 7 HIV-1, 1000 μM): 273 pg/mL; p24 (OD) ([1]; Day 7 HIV-1, 1000 μM): 0.79 OD; reduction (%) ([1]; Day 7 HIV-1, 1000 μM): 100%; p24 ([1]; Day 14 HIV-1, 1000 μM): 240 pg/mL; p24 (OD) ([1]; Day 14 HIV-1, 1000 μM): 0.11 × 10^1 OD; reduction (%) ([1]; Day 14 HIV-1, 1000 μM): 100%; Day 7 RT HIV-2 [3, 5]: 1.759 OD; Day 10 RT HIV-2 [3, 5]: 2.646 OD; Day 7 RT HIV-2 ([3]; Experiment 3, 100 μM): 0.828 OD; Day 10 RT HIV-2 ([3]; Experiment 3, 100 μM): 1.947 OD; HIV-2 infection, result in words [3]: inhibit or prevent HIV-2 and SIV infection"
"NCC(=O)N1CCC[C@H]1C(=O)NCC(N)=O [GPG-NH2, glycyl-prolyl-glycine amide] (H-Gly-Pro-Gly-NH2)",160 pg/mL,0.508 OD,100%,180 pg/mL,0.557 OD,100%,663 pg/mL,1.76 OD,100%,498 pg/mL,1.35 OD,100%,neg,neg,0.735 OD,0.145 OD,0.093 OD,0.575 OD,1.735 OD,2.329 OD,"p24 ([1]; Day 7 HIV-1, 20 μM): 421 pg/mL; p24 (OD) ([1]; Day 7 HIV-1, 20 μM): 1.159 OD; reduction (%) ([1]; Day 7 HIV-1, 20 μM): 99%; p24 ([1]; Day 14 HIV-1, 20 μM): 40600 pg/mL; p24 (OD) ([1]; Day 14 HIV-1, 20 μM): 1.12 × 10^2 OD; reduction (%) ([1]; Day 14 HIV-1, 20 μM): 97%; Day 7 RT HIV-2 [3, 5]: 0.252 OD; Day 10 RT HIV-2 [3, 5]: 1.305 OD; HIV-2 infection, result in words [3]: inhibit or prevent HIV-2 and SIV infection"
cystyl-glutaminyl-glycine amide [CQG-NH2],5620 pg/mL,1.51 × 10^1 OD,86%,1920 pg/mL,0.59 × 10^1 OD,95%,1.47e+06 pg/mL,0.48 × 10^4 OD,0%,2400 pg/mL,0.11 × 10^2 OD,100%,neg,neg,0.217 OD,0.296 OD,1.241 OD,2.501 OD,1.760 OD,2.466 OD,"reduction of HIV-1 infectivity, p24 antigen in cell supernatants ([1]; 300 μM): ~100%; p24 ([1]; Day 7 HIV-1, 1000 μM): 320 pg/mL; p24 (OD) ([1]; Day 7 HIV-1, 1000 μM): 0.91 OD; reduction (%) ([1]; Day 7 HIV-1, 1000 μM): 99%; p24 ([1]; Day 14 HIV-1, 1000 μM): 280 pg/mL; p24 (OD) ([1]; Day 14 HIV-1, 1000 μM): 0.13 × 10^1 OD; reduction (%) ([1]; Day 14 HIV-1, 1000 μM): 100%; Day 7 RT HIV-2 [3, 5]: 1.748 OD; Day 10 RT HIV-2 [3, 5]: 2.721 OD; Day 7 RT HIV-2 ([3]; Experiment 3, 100 μM): 1.715 OD; Day 10 RT HIV-2 ([3]; Experiment 3, 100 μM): 2.815 OD; HIV-2 infection, result in words [3]: inhibit or prevent HIV-2 and SIV infection"
